Measurements published in patent US20100093062A1, “TR[…] FOR PERKINSUS SPECIES” (priority 2007, published 2010).
“Also recorded” adds a separate entry of the source.

System: Perkinsus proliferation
Test: Effect of selectable marker candidates on Perkinsus proliferation (OD600 over time, visual inspection of treated cells)
Format: cell-based, Perkinsus marinus
Settings: for position of OD600 curve in FIG. 2: at 15 days, curves ranked top to bottom; for effect on parasite growth / Perkinsus proliferation: FIG. 2, optical density (OD600) as a function of time in days
Protocol: FIG. 2 is a graph of Optical density (OD600) as a function of time, in days, for various selectable marker candidates for their effect on Perkinsus proliferation. […]
G418 (800 μg/ml) was highly toxic, with visible effects six days after treatment. […] Visual inspection of the treated cells indicated changes in the morphology and cell death. These changes were more evident for G418 and pyrimethamine than with the CAP treatment.

Row | SMILES | position of OD600 curve in FIG. 2 (100 μg/ml) | position of OD600 curve in FIG. 2 (400 μg/ml) | time to visible effects after treatment (800 μg/ml) | toxicity to the parasite (800 μg/ml) | position of OD600 curve in FIG. 2 (800 μg/ml) | time to cells dying after treatment (100 and 400 μg/ml) [days] | effect on parasite growth / Perkinsus proliferation | changes in the morphology and cell death, visual inspection of treated cells (compared with the CAP treatment) | effect on parasite growth (lower doses tested, 100 and 400 μg/ml) | position of OD600 curve in FIG. 2 (50 μg/ml) | effect on parasite growth / Perkinsus proliferation (listed as CAP)
1 | CN[C@@H]1[C@@H](O)[C@@H](O[C@@H]2[C@@H](O)[C@H](O[C@H]3O[C@H]([C@@H](C)O)[C@@H](O)[C@H](O)[C@H]3N)[C@@H](N)C[C@H]2N)OC[C@]1(C)O [G418] | lowest curve | seventh highest curve | six | highly toxic | sixth highest curve | 15 | inhibited parasite growth; also recorded: inhibition of Perkinsus proliferation, especially G418 | more evident | still inhibited parasite growth |  | 
2 | O=C(N[C@H](CO)[C@H](O)c1ccc([N+](=O)[O-])cc1)C(Cl)Cl [chloramphenicol] | fourth highest curve | fifth highest curve |  |  |  |  | inhibited parasite growth |  |  | third highest curve | inhibition of Perkinsus proliferation
